# Test results reported in paper PMC5152921, “Evolutionary and Functional Diversification of the Vitamin D Receptor-Lithocholic Acid Partnership” (PLoS ONE, 2016).
# Legend:
# Assay in all cases: Mammalian 2-hybrid assay (VDR-coregulator interaction, HepG2)
# Type in all cases: cell-based
# Settings in all cases: 100 μM LCA
# Lamprey VDR = target: T1, Lamprey VDR (Petromyzon marinus, UniProt Q7ZZY9)
# T1 sequence (Q7ZZY9 1-406): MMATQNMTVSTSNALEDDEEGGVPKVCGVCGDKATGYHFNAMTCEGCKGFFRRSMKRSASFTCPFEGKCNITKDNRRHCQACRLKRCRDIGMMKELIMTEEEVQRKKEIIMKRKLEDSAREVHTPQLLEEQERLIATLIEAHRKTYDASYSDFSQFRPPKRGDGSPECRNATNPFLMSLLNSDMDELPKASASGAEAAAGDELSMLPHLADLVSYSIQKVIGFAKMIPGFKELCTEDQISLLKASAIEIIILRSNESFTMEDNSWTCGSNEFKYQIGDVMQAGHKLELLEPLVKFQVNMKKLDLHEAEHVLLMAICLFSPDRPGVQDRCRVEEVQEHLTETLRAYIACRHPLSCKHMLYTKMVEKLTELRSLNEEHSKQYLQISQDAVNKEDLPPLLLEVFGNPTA
# T1 sequence (P19793 1-462 partner): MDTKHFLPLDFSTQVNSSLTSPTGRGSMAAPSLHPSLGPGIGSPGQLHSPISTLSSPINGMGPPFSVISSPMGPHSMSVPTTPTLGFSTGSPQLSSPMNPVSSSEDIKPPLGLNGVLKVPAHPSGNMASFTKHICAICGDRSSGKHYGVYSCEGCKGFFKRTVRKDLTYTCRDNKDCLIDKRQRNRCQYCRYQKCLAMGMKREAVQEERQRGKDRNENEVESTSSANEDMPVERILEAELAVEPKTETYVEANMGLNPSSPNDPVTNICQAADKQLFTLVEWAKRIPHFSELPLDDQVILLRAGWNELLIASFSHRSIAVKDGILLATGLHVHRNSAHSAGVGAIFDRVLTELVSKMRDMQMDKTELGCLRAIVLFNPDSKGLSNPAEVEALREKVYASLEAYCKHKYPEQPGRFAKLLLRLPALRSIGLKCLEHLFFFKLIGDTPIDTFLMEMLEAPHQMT
# From the text: (§1) Prey constructs included full-length VDRs fused to the herpes simplex VP16 activation domain (pVP16-VDR). Bait constructs consisted of either full-length wild-type human RXR (pM-RXRWT), a truncated human RXR mutant (pM-RXRAF2), or the defined NR box of each member of the SRC/p160 family (pM-SRC1_241-386, pM-GRIP1_479-767, or pM-ACTR392-1005) fused to the yeast Gal4 DNA-binding domain. Reporters included the Gal4 luciferase reporter (5xGal4-TATA-Luc) and pRL-CMV as an internal luciferase control.
# (§2) HepG2 cells were seeded into 96-well tissue culture plates as described above and transfected with Lipofectamine 2000 the following day. Each well received 33.6 ng pVP16-VDR, 33.6 ng pM-coregulator (where indicated), 126.6 ng 5XGal4-TATA-Luc, and 3 ng pRL-CMV. […] Positive controls were treated with 1,25D3 and vehicle controls were treated with ethanol. Luciferase activity was measured 24 hours post-exposure using the Dual-Glo Luciferase Assay System described above. Raw luciferase data were normalized to the pRL-CMV luciferase control. VDR-coregulator response was normalized to the pVP16-VDR in the absence of bait constructs. Results were analyzed using a two-way ANOVA followed by Bonferroni’s multiple comparisons test in Prism (GraphPad Inc, San Diego, CA). All experiments were replicated 3 times and conducted as groups of 4 replicate wells.
# Zebrafish VDRα = target: T2, Zebrafish VDRα (Danio rerio, UniProt Q9PTN2)
# T2 construct: 89.7 ng/well of full-length pSG5-VDR was co-transfected; expressed in transfected cells; host or cells: HepG2
# T2 sequence (Q9PTN2 1-453): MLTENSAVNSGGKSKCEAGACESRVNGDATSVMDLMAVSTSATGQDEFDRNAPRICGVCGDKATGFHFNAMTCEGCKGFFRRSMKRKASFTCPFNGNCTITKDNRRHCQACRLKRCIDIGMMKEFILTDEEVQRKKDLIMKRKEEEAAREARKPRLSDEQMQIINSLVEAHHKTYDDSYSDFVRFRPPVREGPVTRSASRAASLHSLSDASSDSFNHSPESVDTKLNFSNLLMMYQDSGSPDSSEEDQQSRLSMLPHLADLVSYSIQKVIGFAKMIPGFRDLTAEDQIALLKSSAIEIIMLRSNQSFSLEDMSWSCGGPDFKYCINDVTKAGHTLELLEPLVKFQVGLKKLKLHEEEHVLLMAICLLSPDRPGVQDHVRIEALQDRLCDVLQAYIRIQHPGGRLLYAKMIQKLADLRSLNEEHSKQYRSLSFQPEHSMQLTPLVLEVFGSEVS
# From the text: as §1, §2
# Skate VDR = target: T3, Skate VDR (Leucoraja erinacea, UniProt A0A088GDQ7)
# T3 sequence (A0A088GDQ7 1-434): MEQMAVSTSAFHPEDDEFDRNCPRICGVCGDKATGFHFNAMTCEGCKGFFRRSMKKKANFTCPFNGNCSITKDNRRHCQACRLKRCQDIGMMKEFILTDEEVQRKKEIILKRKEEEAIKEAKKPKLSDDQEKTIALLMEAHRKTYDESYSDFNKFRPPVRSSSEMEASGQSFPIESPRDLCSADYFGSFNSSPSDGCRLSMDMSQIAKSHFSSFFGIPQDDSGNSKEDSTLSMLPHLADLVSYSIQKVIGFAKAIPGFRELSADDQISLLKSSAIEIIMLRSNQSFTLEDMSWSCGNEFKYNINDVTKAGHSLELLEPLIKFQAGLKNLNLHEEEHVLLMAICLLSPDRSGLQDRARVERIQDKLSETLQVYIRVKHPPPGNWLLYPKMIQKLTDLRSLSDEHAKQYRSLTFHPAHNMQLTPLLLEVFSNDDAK
# T3 sequence (P19793 1-462 partner): T1 sequence (P19793 1-462 partner)
# From the text: as §1, §2
# Medaka VDRα = Medaka VDRα (Oryzias latipes, UniProt B2CCA0)
# Medaka VDRα, sequence (B2CCA0 entry or part of it, one chain of several): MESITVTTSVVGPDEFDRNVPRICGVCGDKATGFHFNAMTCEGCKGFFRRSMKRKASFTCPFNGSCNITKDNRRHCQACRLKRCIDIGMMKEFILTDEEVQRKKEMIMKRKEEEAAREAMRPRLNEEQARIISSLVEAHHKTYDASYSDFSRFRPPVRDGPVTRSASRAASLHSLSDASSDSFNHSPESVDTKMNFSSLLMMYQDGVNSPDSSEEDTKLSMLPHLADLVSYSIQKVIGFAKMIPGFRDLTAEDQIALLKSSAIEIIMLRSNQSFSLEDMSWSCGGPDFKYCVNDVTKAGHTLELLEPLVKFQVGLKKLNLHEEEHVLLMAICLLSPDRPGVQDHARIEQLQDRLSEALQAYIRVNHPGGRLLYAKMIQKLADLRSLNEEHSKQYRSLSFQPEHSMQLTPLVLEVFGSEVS
# From the text: as §1, §2
# [1] = any of the SRC/p160 coactivators
# [2] = bait human RXRWT, presence and absence of SRC1
smiles,measurement,setting,value
"C[C@H](CCC(=O)O)[C@H]1CC[C@H]2[C@@H]3CC[C@@H]4C[C@H](O)CC[C@]4(C)[C@H]3CC[C@]12C [LCA, 5β-cholanic acid-3α-ol]",VDR-SRC/p160 coactivator interaction,Lamprey VDR; [1],No protein-protein interaction was observed
same,VDR-RXRWT interaction (heterodimerization),Lamprey VDR; [2],not observed
same,VDR-SRC1 interaction,Zebrafish VDRα; absence of cotransfected RXRWT,successfully recruited SRC1
same,VDR-RXRWT interaction (heterodimerization),Zebrafish VDRα; bait human RXRWT,Robust and significant VDR-RXRWT interactions
same,VDR-SRC1 interaction,Zebrafish VDRα; cotransfection of RXRWT,strong VDR-SRC1 interactions
same,VDR-SRC/p160 coactivator interaction,Skate VDR; [1],No protein-protein interaction was observed
same,VDR-RXRWT interaction (heterodimerization),Skate VDR; [2],not observed
same,VDR-RXRWT interaction (heterodimerization),Medaka VDRα; bait human RXRWT,Robust and significant VDR-RXRWT interactions
same,VDR-SRC1 interaction,Medaka VDRα; cotransfection of RXRWT,strong VDR-SRC1 interactions
